US5670506A, “Halogen, isothiocyanate or azide substituted xanthines” (Cell Therapeutics, Inc., priority 1993, dated 1997)

What was measured:
Type in all cases: cell-based
[1] = system: Ras-transformed 3T3 cells (IL-1-induced signal transduction via the Type I IL-1 receptor); assay: DAG and PA generated after stimulation of Ras-transformed 3T3 cells with IL-1β; details: FIGS. 11 and 12, IL-1β stimulation
Excerpt: FIGS. 11 and 12 show the effects of CT1595 on the amount of DAG (diacylglycerol) (FIG. 11) and PA (Phosphatidic acid) (FIG. 12) generated at different times after stimulation of Ras-transformed 3T3 cells with IL-1β. CT1595 is a potent drug to inhibit enzyme activity that generates PA and then DAG by inhibiting IL-1-induced signal transduction, through this second messenger pathway, via the Type I IL-1 receptor. The inhibiting activity was not in a dose-response manner, indication that the IC50 concentration for inhibiting cellular second messenger signaling is probably below 500 nM.
One in vitro assay measures inhibition of the relevant enzymes lysophosphatidic acid acyltransferase (LPAAT) and phosphatidic acid phosphoryl hydrolase (PAPH). […] It is important to note that the assay method permits discrimination between various forms of PA and DAG so that those relevant to the pathway affected by the (R) or (S) compounds of the invention can be measured directly. […] Thus, the relevant unsaturated (non-arachidonic) PA and DAG subspecies may be detected. […]

[2] = system: mast cell line (PT-18); assay: total PA mass in mast cell line stimulated by IgE and DNP; details: FIG. 13; IgE and DNP stimulation, in words
[3] = system: mast cells; assay: mast cell degranulation, serotonin release assay
Excerpt: A serotonin release assay is utilized to study the utility of the inventive compounds for treatment of asthma and allergy. This assay measures mast cell degranulation, which is an early phase reaction to allergen challenge. Mast cells grown in tissue culture are first loaded with ^3 H serotonin, which is incorporated into the granules in the cells. The mast cells are sensitized with antigen specific monoclonal IgE, and then triggered to degranulate with the specific antigen (dinitrophenol bound to BSA (DNP)). When the cells degranulate, ^3 H Serotonin is released into the medium, and can be measured directly. The ability of the inventive compounds to inhibit the degranulation response is determined by the decrease in ^3 H Serotonin released in the presence of drug and is represented as % INHIBITION. The IC50 of any given compound is determined by the ability of that compound to inhibit degranulation by 50%.
Specifically, the serotonin release assay seeds 2×10^5 cells in 0.5 ml medium in duplicate for spontaneous release, IgE+DNP, IgE+DNP+EtOH (vehicle control), and inventive compounds. One μCi [^3H ]-Serotonin/ml (i.e., 0.5 μCi/well) (NEN Research Products, cat. #NET-398 Hydroxytryptamine Binoxalate, 5-[1,2-^3 H(N)]-(Serotonin Binoxalate, [1,2-^3 H(N)]-)) and 1 μl/ml IgE is added. The cells are incubated for 18 hours at 37° C. in 5% CO2, washed twice with 0.5 ml Isotonic Buffer (25 mM disodium PIPES pH 7.1,100 mM NaCl, 5 mM KCl, 5 mM glucose, 0.4 mM MgCl2, 1 mM CaCl2, 0.1% BSA), and sterile filtered. 250 μl Isotonic Buffer is added per well and the plates are equilibrated in an incubator for about 10 min. Drug is added and cells are activated with 40 ng/ml DNP-BSA (1 mg/ml Diluted 1:200 in Isotonic Buffer) for 45 minutes using 2 μl/250 μl. Spontaneous release is determined in incubated cells with 250 μl Isotonic Buffer for 45 minutes and the reaction is stopped by removing supernatant and centrifuging at ~4000 rpm in microfuge for 15 seconds to remove any detached cells. Released radiolableled serotonin is counted. To determine amount of ^3 H-serotonin incorporated into the cells, (a) remove Isotonic Buffer and lyse cells by adding 250 μl 1% Triton-X100 in PBS, (b) add to 5 ml scintillation fluid, (c) wash 2× with Triton/PBS, and (d) add washes to scintillation tube. Percent serotonin release is calculated by dividing the amount of released serotonin by the sum of incorporated plus released serotonin and correcting for spontaneous released serotonin. Compound inhibition is calculated by dividing the percent serotonin release in the presence of a compound by the percent serotonin release in the absence of the compound.
This assay is described above and provides an in vitro model for an allergy and asthma therapeutic compound.

Cn1cnc2c1c(=O)n(CCCCC(=O)CCl)c(=O)n2C [CT1595, 1-(6-chloro-5-oxohexyl)-3,7-dimethylxanthine]
inhibition of DAG and PA generation ([1]; in words): the overall signal is being significantly inhibited | IC50 ([1]; Mus musculus, NIH3T3, "probably" below, read-out: IC50 for inhibiting cellular second messenger signaling): < 500 nM | IC50 for accumulation of PA [2]: low nanomolar range | inhibition at 50 µM ([3]; 50 μM): 44% | inhibition at 100 µM ([3]; 100 μM): 88%
